Source: patent US20090238808A1, “Process for the identification of novel enzyme interacting compounds” (priority 2005, published 2009)

Tests used:
Assay in all cases: Kinobeads elution with test compound, mouse brain lysate, MS
Assay type in all cases: binding
Settings in all cases: kinase released from kinobeads by specific elution
[1] = target: T1, CaMK2a (Mus musculus, UniProt P11798)
T1 construct: […]; from tissue; host or cells: mouse brain
Experimental: (§1) This example illustrates competitive elution of proteins bound to kinobeads with non-modified test compounds (see particularly the fourth aspect of the invention). The kinobeads (as described in example 1) were contacted with mouse brains lysate, bound proteins were eluted with various test compounds and the released proteins were analysed by mass spectrometry.
(§2) The kinobeads were contacted with mouse brain lysate under conditions that allow the binding of the proteins in the lysate to the ligands. The binding conditions were close to physiological by choosing suitable buffer conditions preserving the function of the proteins. After removing non-captured proteins through a gentle washing procedure the bound proteins were contacted with a test compound for protein elution.
(§3) Various test compounds (see section 2.7) were used to release bound proteins following these steps:
(§4) 1. Resuspend beads with bound proteins (section 2.4) in 1×DP buffer/0.2% NP-40 as 1:3 slurry (volume/volume). 2. Transfer 20 μl the 1:3 slurry into MoBiTech columns (equivalent to 5 μl of beads). 3. Place the column into an Eppendorf tube and centrifuge it for 15 seconds at 800 rpm at 4° C. Close columns with lower lid. 4. Add 10 μl elution buffer containing 1.0 mM of the test compound (concentration ranges of 0.1 to 1.0 mM are suitable). As a control use elution buffer containing 2% DMSO or 2% DMF dependent on the solvent used for dissolving the test compound. Close column with upper lid. 5. Incubate for 30 minutes at 4° C. in an Eppendorf incubator at 700 rpm. 6. Open column (first top, then bottom), put column back into siliconized tube (SafeSeal Microcentrifuge Tubes, cat. no 11270, Sorenson BioScience, Inc.). To harvest the eluate centrifuge 2 minutes at 2.000 rpm in table top centrifuge at room temperature. The typical volume of the eluate is approximately 15 μl. 7. Add 5 μl 4× NuPAGE SDS Sample Buffer (Invitrogen, NP0007) containing 100 mM DTT (DTT has to be added just prior to use). 8. Incubate for 30 minutes at 50° C. 9. Add 1/10 volume of 200 mg/ml iodoacetamide, incubate for 30 min at room temperature, protect from light. This reaction leads to the alkylation of cysteines for mass spectrometry. 10. Before loading samples onto the gel, centrifuge samples for 5 minutes at 15.000 rpm in order to remove precipitates. 11. For protein separation apply 10 μl sample to NuPAGE 4-12% Bis-Tris gel (Invitrogen, NPO335). 2.6 Preparation of Stock Solutions used in this Protocol
(§5) Search criteria varied depending on which mass spectrometer was used for the analysis.

[2] = target: T2, CaMK2d (Mus musculus, UniProt Q6PHZ2)
T2 construct: […]; from tissue; host or cells: mouse brain
T2 sequence (Q6PHZ2 whole entry): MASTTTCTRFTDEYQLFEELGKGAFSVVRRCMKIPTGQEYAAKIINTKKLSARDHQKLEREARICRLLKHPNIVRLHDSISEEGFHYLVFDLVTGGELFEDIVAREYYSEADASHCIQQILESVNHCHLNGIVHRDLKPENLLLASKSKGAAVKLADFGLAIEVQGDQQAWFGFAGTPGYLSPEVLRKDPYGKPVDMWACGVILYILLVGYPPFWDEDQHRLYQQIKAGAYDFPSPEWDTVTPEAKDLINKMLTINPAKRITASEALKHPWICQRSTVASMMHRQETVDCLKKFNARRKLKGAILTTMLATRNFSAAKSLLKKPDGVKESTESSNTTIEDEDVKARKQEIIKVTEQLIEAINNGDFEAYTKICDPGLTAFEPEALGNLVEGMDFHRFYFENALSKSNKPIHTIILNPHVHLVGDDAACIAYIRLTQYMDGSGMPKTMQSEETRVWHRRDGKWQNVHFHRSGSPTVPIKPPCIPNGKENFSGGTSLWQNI
Experimental: as §1, §2, §3, §4, §5

[3] = target: EphA4 (Mus musculus, UniProt Q03137)
Sequence of EphA4 (Q03137 20-986): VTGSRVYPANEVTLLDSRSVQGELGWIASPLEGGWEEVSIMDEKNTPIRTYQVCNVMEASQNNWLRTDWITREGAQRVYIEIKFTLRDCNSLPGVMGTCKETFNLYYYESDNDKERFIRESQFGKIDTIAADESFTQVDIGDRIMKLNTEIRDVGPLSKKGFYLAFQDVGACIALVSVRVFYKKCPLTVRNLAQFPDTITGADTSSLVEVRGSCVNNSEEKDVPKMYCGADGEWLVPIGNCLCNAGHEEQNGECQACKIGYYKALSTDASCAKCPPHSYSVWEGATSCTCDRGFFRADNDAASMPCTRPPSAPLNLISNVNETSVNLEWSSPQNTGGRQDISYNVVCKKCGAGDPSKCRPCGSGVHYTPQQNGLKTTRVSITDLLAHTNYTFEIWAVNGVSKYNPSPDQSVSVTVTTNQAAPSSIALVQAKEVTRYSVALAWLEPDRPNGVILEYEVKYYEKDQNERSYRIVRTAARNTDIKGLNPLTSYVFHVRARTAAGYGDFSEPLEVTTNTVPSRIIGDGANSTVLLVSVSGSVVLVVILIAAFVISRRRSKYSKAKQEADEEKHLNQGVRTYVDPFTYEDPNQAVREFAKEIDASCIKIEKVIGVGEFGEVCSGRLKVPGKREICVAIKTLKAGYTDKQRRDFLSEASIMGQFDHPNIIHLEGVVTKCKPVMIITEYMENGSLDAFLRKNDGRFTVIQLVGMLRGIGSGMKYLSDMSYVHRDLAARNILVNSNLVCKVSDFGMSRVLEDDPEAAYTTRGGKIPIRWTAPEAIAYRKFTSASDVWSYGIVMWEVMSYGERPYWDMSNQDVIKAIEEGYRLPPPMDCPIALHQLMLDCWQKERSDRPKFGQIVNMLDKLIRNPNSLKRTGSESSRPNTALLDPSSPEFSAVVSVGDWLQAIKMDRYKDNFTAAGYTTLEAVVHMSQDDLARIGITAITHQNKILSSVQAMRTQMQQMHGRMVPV
Experimental: as §1, §2, §3, §4, §5

[4] = target: EphA5 (Mus musculus, UniProt Q60629)
Sequence of EphA5 (Q60629 27-876): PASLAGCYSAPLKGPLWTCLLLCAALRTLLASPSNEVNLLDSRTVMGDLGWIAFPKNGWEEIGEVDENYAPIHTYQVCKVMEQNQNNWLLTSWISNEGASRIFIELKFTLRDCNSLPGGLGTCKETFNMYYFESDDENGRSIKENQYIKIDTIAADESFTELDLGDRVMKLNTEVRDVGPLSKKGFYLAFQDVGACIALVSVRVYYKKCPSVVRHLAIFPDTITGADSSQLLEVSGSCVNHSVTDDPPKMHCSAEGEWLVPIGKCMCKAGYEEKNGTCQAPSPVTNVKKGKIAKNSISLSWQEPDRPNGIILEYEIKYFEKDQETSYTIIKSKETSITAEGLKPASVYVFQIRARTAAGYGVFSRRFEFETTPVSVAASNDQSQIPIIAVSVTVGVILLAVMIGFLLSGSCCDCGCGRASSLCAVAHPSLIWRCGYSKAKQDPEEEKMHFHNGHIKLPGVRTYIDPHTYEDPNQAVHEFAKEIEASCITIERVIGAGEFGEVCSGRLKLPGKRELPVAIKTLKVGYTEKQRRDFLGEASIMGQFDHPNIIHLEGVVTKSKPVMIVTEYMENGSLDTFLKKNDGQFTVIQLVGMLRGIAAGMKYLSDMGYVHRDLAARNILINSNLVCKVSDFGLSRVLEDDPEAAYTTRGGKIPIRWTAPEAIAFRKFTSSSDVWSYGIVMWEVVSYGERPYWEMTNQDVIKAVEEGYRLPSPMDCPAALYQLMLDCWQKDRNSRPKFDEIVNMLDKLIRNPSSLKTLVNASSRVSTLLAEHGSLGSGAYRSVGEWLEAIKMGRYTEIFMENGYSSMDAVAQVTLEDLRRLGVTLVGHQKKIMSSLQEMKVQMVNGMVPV
Experimental: as §1, §2, §3, §4, §5

[5] = target: T3, Erk2 (Mus musculus, UniProt P63085)
T3 construct: […]; from tissue; host or cells: mouse brain
T3 sequence (P63085 whole entry): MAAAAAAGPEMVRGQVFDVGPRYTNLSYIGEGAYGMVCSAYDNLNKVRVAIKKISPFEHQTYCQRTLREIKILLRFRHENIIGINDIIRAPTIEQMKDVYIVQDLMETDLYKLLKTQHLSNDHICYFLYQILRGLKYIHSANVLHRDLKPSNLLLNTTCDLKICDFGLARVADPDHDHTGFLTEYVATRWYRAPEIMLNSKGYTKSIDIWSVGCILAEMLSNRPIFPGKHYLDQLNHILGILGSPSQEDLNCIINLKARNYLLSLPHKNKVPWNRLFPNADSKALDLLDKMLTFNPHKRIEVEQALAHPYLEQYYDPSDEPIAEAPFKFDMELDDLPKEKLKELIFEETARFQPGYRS
Experimental: as §1, §2, §3, §4, §5

[6] = target: T4, GAK (Mus musculus, UniProt Q99KY4)
T4 construct: from tissue; host or cells: mouse brain
T4 sequence (Q99KY4 1-1305): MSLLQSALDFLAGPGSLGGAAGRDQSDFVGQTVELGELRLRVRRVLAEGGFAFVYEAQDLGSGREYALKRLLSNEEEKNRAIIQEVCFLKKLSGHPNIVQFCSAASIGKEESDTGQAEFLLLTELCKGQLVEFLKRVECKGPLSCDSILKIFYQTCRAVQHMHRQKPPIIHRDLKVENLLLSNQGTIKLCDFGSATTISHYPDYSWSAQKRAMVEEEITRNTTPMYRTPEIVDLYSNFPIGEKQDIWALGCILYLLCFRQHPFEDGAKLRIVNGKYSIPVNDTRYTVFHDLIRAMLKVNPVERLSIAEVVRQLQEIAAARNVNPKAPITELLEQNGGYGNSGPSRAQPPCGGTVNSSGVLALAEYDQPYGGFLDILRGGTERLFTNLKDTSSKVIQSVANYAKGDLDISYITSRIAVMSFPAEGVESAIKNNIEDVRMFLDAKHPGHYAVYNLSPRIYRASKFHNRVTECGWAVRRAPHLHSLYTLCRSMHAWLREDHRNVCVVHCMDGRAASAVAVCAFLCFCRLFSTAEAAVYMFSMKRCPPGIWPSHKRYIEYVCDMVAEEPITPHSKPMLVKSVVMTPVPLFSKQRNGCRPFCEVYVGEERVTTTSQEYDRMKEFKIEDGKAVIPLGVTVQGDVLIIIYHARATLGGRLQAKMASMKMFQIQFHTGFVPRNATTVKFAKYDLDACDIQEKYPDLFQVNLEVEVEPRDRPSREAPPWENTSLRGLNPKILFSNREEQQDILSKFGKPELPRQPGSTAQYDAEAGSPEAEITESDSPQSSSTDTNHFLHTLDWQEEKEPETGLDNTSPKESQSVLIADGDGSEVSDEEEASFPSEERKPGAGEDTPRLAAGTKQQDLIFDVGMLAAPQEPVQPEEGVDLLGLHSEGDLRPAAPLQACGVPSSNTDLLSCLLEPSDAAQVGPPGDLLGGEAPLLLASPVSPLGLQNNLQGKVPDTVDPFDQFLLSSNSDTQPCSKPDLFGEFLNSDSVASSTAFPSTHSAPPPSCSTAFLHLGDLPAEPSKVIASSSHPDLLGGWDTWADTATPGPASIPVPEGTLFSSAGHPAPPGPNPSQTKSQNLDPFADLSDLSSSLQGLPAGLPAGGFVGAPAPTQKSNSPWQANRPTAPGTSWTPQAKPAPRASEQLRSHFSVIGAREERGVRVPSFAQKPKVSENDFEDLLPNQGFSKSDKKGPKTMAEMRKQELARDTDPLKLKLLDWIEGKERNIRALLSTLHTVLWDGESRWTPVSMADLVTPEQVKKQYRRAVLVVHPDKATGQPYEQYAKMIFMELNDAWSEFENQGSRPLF
Experimental: as §1, §2, §3, §4, §5

[7] = target: T5, GSK3Aps (Mus musculus, UniProt Q2NL51)
T5 construct: from tissue; host or cells: mouse brain
T5 sequence (Q2NL51 2-490 limits assumed): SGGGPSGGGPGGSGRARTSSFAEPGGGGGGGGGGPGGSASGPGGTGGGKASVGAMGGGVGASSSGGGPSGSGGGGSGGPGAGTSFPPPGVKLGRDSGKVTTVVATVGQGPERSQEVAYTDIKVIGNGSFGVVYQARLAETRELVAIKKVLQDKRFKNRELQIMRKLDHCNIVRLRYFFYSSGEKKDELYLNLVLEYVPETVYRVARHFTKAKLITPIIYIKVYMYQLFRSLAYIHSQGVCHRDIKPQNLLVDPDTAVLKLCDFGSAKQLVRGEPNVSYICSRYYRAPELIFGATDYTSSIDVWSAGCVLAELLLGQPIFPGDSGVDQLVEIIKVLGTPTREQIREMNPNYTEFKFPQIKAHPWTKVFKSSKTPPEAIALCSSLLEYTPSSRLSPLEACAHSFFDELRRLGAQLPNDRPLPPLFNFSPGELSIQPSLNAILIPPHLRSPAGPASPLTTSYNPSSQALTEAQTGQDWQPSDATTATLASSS
Experimental: as §1, §2, §3, §4, §5

[8] = target: T6, RSK3 (Mus musculus, UniProt P18653)
T6 construct: from tissue; host or cells: mouse brain
T6 sequence (P18653 whole entry): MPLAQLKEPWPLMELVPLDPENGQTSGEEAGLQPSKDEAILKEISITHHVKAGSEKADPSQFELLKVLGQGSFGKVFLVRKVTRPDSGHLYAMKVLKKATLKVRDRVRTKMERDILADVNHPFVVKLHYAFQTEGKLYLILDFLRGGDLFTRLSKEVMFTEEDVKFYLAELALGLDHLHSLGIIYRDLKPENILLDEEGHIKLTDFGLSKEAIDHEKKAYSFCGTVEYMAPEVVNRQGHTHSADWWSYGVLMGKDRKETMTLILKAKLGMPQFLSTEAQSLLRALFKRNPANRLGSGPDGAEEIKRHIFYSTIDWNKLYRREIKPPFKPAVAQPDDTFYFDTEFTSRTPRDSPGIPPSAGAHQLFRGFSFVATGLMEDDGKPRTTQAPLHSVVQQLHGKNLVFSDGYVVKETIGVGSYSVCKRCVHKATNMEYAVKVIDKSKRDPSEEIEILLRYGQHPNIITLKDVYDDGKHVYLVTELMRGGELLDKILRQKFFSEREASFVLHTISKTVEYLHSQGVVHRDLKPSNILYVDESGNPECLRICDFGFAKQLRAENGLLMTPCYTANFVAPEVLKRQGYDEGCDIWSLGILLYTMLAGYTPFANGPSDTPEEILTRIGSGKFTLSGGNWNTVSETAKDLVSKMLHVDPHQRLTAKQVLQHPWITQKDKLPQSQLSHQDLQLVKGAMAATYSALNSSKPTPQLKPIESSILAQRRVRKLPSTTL
Experimental: as §1, §2, §3, §4, §5

[9] = target: T7, SRC (Mus musculus, UniProt P05480)
T7 construct: from tissue; host or cells: mouse brain
T7 sequence (P05480 whole entry): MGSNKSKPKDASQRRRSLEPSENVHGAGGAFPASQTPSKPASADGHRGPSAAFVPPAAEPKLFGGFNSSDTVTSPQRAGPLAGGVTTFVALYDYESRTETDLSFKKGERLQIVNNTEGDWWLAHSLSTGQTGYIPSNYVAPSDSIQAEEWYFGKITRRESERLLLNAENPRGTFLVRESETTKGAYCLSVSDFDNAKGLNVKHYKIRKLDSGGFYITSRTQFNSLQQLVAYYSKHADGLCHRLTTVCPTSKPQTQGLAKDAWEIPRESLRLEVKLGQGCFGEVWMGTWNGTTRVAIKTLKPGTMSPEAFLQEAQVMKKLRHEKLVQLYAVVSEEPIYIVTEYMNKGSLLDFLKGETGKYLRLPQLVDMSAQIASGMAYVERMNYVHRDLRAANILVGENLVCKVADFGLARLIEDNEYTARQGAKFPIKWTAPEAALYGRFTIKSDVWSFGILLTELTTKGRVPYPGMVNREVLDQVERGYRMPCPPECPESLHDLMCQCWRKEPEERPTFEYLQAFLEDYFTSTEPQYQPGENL
Experimental: as §1, §2, §3, §4, §5

T1 sequence (P11798 whole entry): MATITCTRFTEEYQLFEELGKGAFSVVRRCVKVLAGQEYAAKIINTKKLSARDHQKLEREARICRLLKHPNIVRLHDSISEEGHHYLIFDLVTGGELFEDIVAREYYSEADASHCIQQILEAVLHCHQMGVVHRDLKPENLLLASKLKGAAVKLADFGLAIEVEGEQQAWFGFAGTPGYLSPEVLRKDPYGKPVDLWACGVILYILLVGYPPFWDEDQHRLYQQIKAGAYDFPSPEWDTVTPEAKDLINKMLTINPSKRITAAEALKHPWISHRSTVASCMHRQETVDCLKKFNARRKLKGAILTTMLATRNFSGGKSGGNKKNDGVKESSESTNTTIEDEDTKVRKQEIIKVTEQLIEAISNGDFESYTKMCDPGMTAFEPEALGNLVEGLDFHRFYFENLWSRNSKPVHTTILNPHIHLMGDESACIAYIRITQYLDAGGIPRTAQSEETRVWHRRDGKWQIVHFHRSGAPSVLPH

Row | Compound | mass spectrometry score, CaMK2a [1] | number of identified peptides, CaMK2a [1] | mass spectrometry score, CaMK2d [2] | number of identified peptides, CaMK2d [2] | mass spectrometry score, EphA4 [3] | number of identified peptides, EphA4 [3] | mass spectrometry score, EphA5 [4] | number of identified peptides, EphA5 [4] | mass spectrometry score, Erk2 [5] | number of identified peptides, Erk2 [5] | mass spectrometry score, GAK [6] | number of identified peptides, GAK [6] | mass spectrometry score, GSK3Aps [7] | number of identified peptides, GSK3Aps [7] | number of identified peptides, RSK3 [8] | mass spectrometry score, SRC [9] | number of identified peptides, SRC [9]
1 | CCCCCCCCCCCCOS(=O)(=O)[O-].[Na+] [SDS] | 786 | 74 | 434 | 36 | 727 | 33 | 246 | 9 | 1023 | 102 | 166 | 8 | 585 | 77 | 6 | 419 | 25
2 | CC(C)[C@H](CO)Nc1nc(Nc2ccc(C(=O)O)c(Cl)c2)c2ncn(C(C)C)c2n1 [Purvalanol B, reference compound] | 978 | 27 | 473 | 12 | 1702 | 37 | 330 | 14 | 1437 | 115 |  |  | 357 | 6 | 11 | 544 | 13
3 | CNC1CC2OC(C)(C1OC)n1c3ccccc3c3c4c(c5c6ccccc6n2c5c31)C(=O)NC4 (stereo not drawn) [CZC9280] | 1027 | 69 | 822 | 40 | 332 | 11 |  |  |  |  |  |  | 868 | 47 | 21 | 546 | 13
4 | NCc1ccc(Nc2ncc(F)c(Nc3ccccc3)n2)cc1 [CZC00008004] | 966 | 43 | 444 | 11 | 138 | 3 |  |  | 810 | 46 | 733 | 16 | 635 | 27 |  |  | 
5 | Cn1c(=O)c(-c2c(Cl)cccc2Cl)cc2cnc(Nc3ccc(CN)cc3)cc21 [CZC7324] | 513 | 11 | 328 | 7 | 1233 | 32 | 144 | 3 | 1179 | 235 | 278 | 7 | 154 | 3 | 12 | 351 | 9
